Values belong to the compound of their own block, whether it stands above or below them.
What was measured:
[1] = system: Tetranychus urticae (Two-Spotted Spider Mite); test: Activity against Tetranychus urticae, mixed population, feeding/residual contact activity, preventive (Example B4); assay type: in vivo; settings: foliar, 192 h, bean leaf discs sprayed, egg, larval and adult mortality 8 days later
From the text: Activity Against Tetranychus urticae (Two-Spotted Spider Mite) (Mixed Population, Feeding/Residual Contact Activity, Preventive)
Bean leaf discs on agar in 24-well microtiter plates are sprayed with test solutions. After drying, the leaf discs are infested with mite populations of mixed ages. 8 days later, discs are checked for egg mortality, larval mortality, and adult mortality.

[2] = system: Myzus persicae (Green Peach Aphid); test: Activity against Myzus persicae on cabbage plants, feeding/residual contact activity (Example B5); assay type: in vivo; settings: 144 h, infested cabbage plants, spray chamber, mortality 6 days after treatment
Method: Activity Against Myzus persicae (Green Peach Aphid) (Mixed Population, Feeding/Residual Contact Activity, Plant Damage Evaluation)
Cabbage plants infested with a mixed population of Myzus persicae are treated with diluted test solutions of the compounds in a spray chamber. 6 days after treatment, samples are checked for mortality and for plant damage (phytotoxicity), visual assessment being made using a 0-100% rating scale (100%=total damage to plant; 0%=no damage to plant).

[3] = system: Myzus persicae (Green Peach Aphid); test: Activity against Myzus persicae, mixed population, feeding/residual contact activity, preventive (Example B1); assay type: in vivo; parameters: concentration or dose not given beside the values; settings: foliar, 144 h, sunflower leaf discs sprayed, mortality checked after 6 days
Method: Activity Against Myzus persicae (Green Peach Aphid) (Mixed Population, Feeding/Residual Contact Activity, Preventive)
Sunflower leaf discs are placed on agar in a 24-well microtiter plate and sprayed with test solutions. After drying, the leaf discs are infested with an aphid population of mixed ages. After an incubation period of 6 days, samples are checked for mortality and special effects (e.g. phytotoxicity).

[4] = system: Myzus persicae (Green Peach Aphid); test: Activity against Myzus persicae, mixed population, systemic/feeding activity, curative (Example B2); assay type: in vivo; settings: 144 h, roots of infested pea seedlings in test solution, mortality 6 days after introduction
From the text: Activity Against Myzus persicae (Green Peach Aphid) (Mixed Population, Systemic/Feeding Activity, Curative)
Roots of pea seedlings, infested with an aphid population of mixed ages, are placed directly in the test solutions. 6 days after introduction, samples are checked for mortality and special effects on the plant.

[5] = system: Aphis craccivora (Cowpea Aphid); test: Activity against Aphis craccivora, mixed population, contact/feeding (Example B9); assay type: in vivo; settings: 200 ppm; infested pea seedlings, spray chamber; mortality 6 days after treatment
Method: Activity Against Aphis craccivora (Cowpea Aphid) (Mixed Population, Contact/Feeding)
Pea seedlings, infested with an aphid population of mixed ages, are treated (2 replicates) with diluted test solutions in a spray chamber. 6 days after treatment, samples are checked for mortality.

melting point: 185 to 187 °C
Compound: CCOC(=O)OC1=C(c2cc(C(C)=O)ccc2C)C(=O)NC12CCN(OC)CC2 [Compound P1.2]

Compound: C=Cc1cc(C)cc(C)c1C1=C(OC(=O)OCC)C2(CCN(OC)CC2)NC1=O [Compound P1.3]
pest or weed control at 400 ppm [1]: > 80%
pest or weed control at 200 ppm [2]: ≥ 80%
pest or weed control [3]: > 80%
pest or weed control at 400 ppm [4]: > 80%

Compound: C=Cc1cc(C)cc(C)c1C1=C(OC(=O)OCC)C2(CCN(OC)CC2)N(C)C1=O [Compound P1.4]
pest or weed control at 400 ppm [1]: > 80%
pest or weed control at 200 ppm [2]: ≥ 80%
pest or weed control [3]: > 80%

Compound: C=Cc1cc(C)cc(C)c1C1=C(OC(=O)OCC)C2(CCN(OC)CC2)N(OC2CCCO2)C1=O (stereo not shown) [Compound P1.5, Carbonic acid 3-(2,4-dimethyl-6-vinyl-phenyl)-8-methoxy-2-oxo-1-(tetrahydro-furan-2-yloxy)-1,8-diaza-spiro[4.5]dec-3-en-4-yl ester ethyl ester]
pest or weed control at 400 ppm [1]: > 80%
pest or weed control at 200 ppm [2]: ≥ 80%
pest or weed control [3]: > 80%

Compound: C=Cc1cc(C)c(C2=C(OC(=O)OCC)C3(CCN(OC)CC3)N(C)C2=O)c(C)c1 [Compound P1.6]
activity [5]: over 80%
pest or weed control at 200 ppm [2]: ≥ 80%

Compound: C#Cc1cc(C)cc(C)c1C1=C(OC(=O)OCC)C2(CCN(OC)CC2)NC1=O [Compound P1.7]
pest or weed control at 400 ppm [1]: > 80%
pest or weed control at 200 ppm [2]: ≥ 80%
pest or weed control [3]: > 80%
pest or weed control at 400 ppm [4]: > 80%

Compound: C#Cc1cc(C)cc(C)c1C1=C(OC(=O)OCC)C2(CCN(OC)CC2)N(C)C1=O [Compound P1.8]
pest or weed control at 400 ppm [1]: > 80%
pest or weed control at 200 ppm [2]: ≥ 80%
pest or weed control [3]: > 80%
pest or weed control at 400 ppm [4]: > 80%

Compound: C#Cc1cc(C)cc(C)c1C1=C(OC(=O)OCC)C2(CCN(OC)CC2)N(OC2CCCO2)C1=O (stereo not shown) [Compound P1.9]
pest or weed control at 400 ppm [1]: > 80%
pest or weed control at 200 ppm [2]: ≥ 80%
pest or weed control [3]: > 80%
pest or weed control at 400 ppm [4]: > 80%

Compound: C#Cc1ccc(C)cc1C1=C(OC(=O)OCC)C2(CCN(OC)CC2)NC1=O [Compound P1.10]
pest or weed control at 200 ppm [2]: ≥ 80%

Compound: C#Cc1ccc(C)cc1C1=C(OC(=O)OCC)C2(CCN(OC)CC2)N(OC)C1=O [Compound P1.11]
pest or weed control at 400 ppm [1]: > 80%
pest or weed control at 200 ppm [2]: ≥ 80%
pest or weed control [3]: > 80%

Compound: C#Cc1cc(C)c(C2=C(OC(=O)OCC)C3(CCN(OC)CC3)NC2=O)c(C)c1 [Compound P1.12]
pest or weed control at 200 ppm [2]: ≥ 80%
pest or weed control [3]: > 80%
pest or weed control at 400 ppm [4]: > 80%

Compound: C#Cc1cc(C)c(C2=C(OC(=O)OCC)C3(CCN(OC)CC3)N(C)C2=O)c(C)c1 [Compound P1.13]
pest or weed control at 200 ppm [2]: ≥ 80%
pest or weed control [3]: > 80%
pest or weed control at 400 ppm [4]: > 80%

Compound: CC#Cc1cc(C)c(C2=C(OC(=O)OCC)C3(CCN(OC)CC3)N(C)C2=O)c(C)c1 [Compound P1.14]
pest or weed control at 400 ppm [1]: > 80%
pest or weed control at 200 ppm [2]: ≥ 80%
pest or weed control at 400 ppm [4]: > 80%

melting point: 218 to 220 °C
Compound: CON1CCC2(CC1)NC(=O)C(c1cc(C(C)=O)ccc1C)C2=O (stereo not shown) [Compound P2.1]

melting point: 245 to 247 °C
Compound: COC(=O)c1ccc(C)c(C2C(=O)NC3(CCN(OC)CC3)C2=O)c1 (stereo not shown) [Compound P2.2]

Compound: C=Cc1cc(C)cc(C)c1C1=C(O)C2(CCN(OC)CC2)NC1=O [Compound P2.3, 3-(2,4-Dimethyl-6-vinyl-phenyl)-4-hydroxy-8-methoxy-1,8-diaza-spiro[4.5]dec-3-en-2-one]
pest or weed control at 400 ppm [1]: > 80%
pest or weed control at 200 ppm [2]: ≥ 80%
pest or weed control [3]: > 80%

Compound: C=Cc1cc(C)cc(C)c1C1=C(O)C2(CCN(OC)CC2)N(C)C1=O [Compound P2.4, 3-(2,4-Dimethyl-6-vinyl-phenyl)-4-hydroxy-8-methoxy-1-methyl-1,8-diaza-spiro[4.5]dec-3-en-2-one]
pest or weed control at 200 ppm [2]: ≥ 80%

Compound: C=Cc1cc(C)cc(C)c1C1=C(O)C2(CCN(OC)CC2)N(OC2CCCO2)C1=O (stereo not shown) [Compound P2.5, 3-(2,4-Dimethyl-6-vinyl-phenyl)-4-hydroxy-8-methoxy-1-(tetrahydro-furan-2-yloxy)-1,8-diaza-spiro[4.5]dec-3-en-2-one]
pest or weed control at 200 ppm [2]: ≥ 80%

Compound: C#Cc1cc(C)cc(C)c1C1C(=O)NC2(CCN(OC)CC2)C1=O (stereo not shown) [Compound P2.6]
pest or weed control at 400 ppm [1]: > 80%
pest or weed control at 200 ppm [2]: ≥ 80%
pest or weed control [3]: > 80%
pest or weed control at 400 ppm [4]: > 80%

Compound: C#Cc1cc(C)cc(C)c1C1C(=O)N(C)C2(CCN(OC)CC2)C1=O (stereo not shown) [Compound P2.7]
pest or weed control at 400 ppm [1]: > 80%
pest or weed control at 200 ppm [2]: ≥ 80%
pest or weed control [3]: > 80%

Compound: C#Cc1cc(C)cc(C)c1C1C(=O)N(OC2CCCO2)C2(CCN(OC)CC2)C1=O (stereo not shown) [Compound P2.8]
pest or weed control at 400 ppm [1]: > 80%
pest or weed control at 200 ppm [2]: ≥ 80%
pest or weed control [3]: > 80%
pest or weed control at 400 ppm [4]: > 80%

Compound: C#Cc1ccc(C)cc1C1C(=O)N(OC)C2(CCN(OC)CC2)C1=O (stereo not shown) [Compound P2.10]
pest or weed control at 200 ppm [2]: ≥ 80%

Compound: C#Cc1cc(C)c(C2C(=O)NC3(CCN(OC)CC3)C2=O)c(C)c1 (stereo not shown) [Compound P2.11]
pest or weed control at 200 ppm [2]: ≥ 80%
pest or weed control [3]: > 80%
pest or weed control at 400 ppm [4]: > 80%

Compound: C#Cc1cc(C)c(C2=C(O)C3(CCN(OC)CC3)N(C)C2=O)c(C)c1 [Compound P2.12, 3-(4-Ethynyl-2,6-dimethyl-phenyl)-4-hydroxy-8-methoxy-1-methyl-1,8-diaza-spiro[4.5]dec-3-en-2-one]
pest or weed control at 200 ppm [2]: ≥ 80%
pest or weed control [3]: > 80%
pest or weed control at 400 ppm [4]: > 80%

Compound: CC#Cc1cc(C)c(C2=C(O)C3(CCN(OC)CC3)N(C)C2=O)c(C)c1 [Compound P2.13, 3-(2,6-Dimethyl-4-prop-1-ynyl-phenyl)-4-hydroxy-8-methoxy-1-methyl-1,8-diaza-spiro[4.5]dec-3-en-2-one]
pest or weed control at 200 ppm [2]: ≥ 80%

— patent publication US20130210625A1, “SPIROHETEROCYCLIC PYRROLIDINE DERIVATIVES BASED PESTICIDES” (SYNGENTA CROP PROTECTION LLC, priority 2010, published 2013)
